Reference: publication PMC3001885, “Metabolic Activity and mRNA Levels of Human Cardiac CYP450s Involved in Drug Metabolism” (PLoS ONE, 2010)

Columns and labels:
[1] = tested on: CYP450s in human heart microsomes; test: Inhibition of verapamil metabolite formation in human heart microsomes by chemical inhibitors; conditions: inhibitor 100 µM, verapamil 400 µM
[2] = tested on: human heart microsomes; test: Verapamil metabolism in human heart microsomes (formation of metabolites, HPLC); type: in vitro ADME
Protocol: The HPLC system (Thermo Separation products, Fremont, CA) consisted of a SpectraSystem P4000 pump, a SpectraSystem AS3000 autosampler, a FL3000 fluorescence detector, a SpectraSystem UV3000 ultraviolet detector and PC1000 System Software.
Frozen samples of human heart ventricles (4–10 g) were immersed in cold phosphate buffer 100 mM (pH 7.4) containing potassium chloride 150 mM, EDTA 1 mM, dithiotreitol 0.5 mM and PMSF 0.01 mM (1∶3, w/v). Tissue was roughly sliced prior to homogenization using a Polytron. The resulting suspension was sonicated 3 times for 5–10 seconds. Homogenization and sonication were performed on ice. Microsomal fractions were isolated by centrifugation at 10,000 g for 20 minutes. The resulting supernatant was centrifuged twice at 100,000 g for 2 consecutive 90-minute periods. The final microsomal pellet was resuspended in a phosphate buffer 100 mM (pH 7.4), potassium chloride 150 mM and EDTA 1 mM. All procedures were performed at 4°C. […] The leftover heart microsomes were immediately shock frozen in liquid nitrogen for subsequent protein quantification. Microsomal heart proteins were quantified using a BCA Pierce kit.
All microsomal incubations were performed in duplicate.
Incubations containing microsomes, buffer and NADPH-regenerating system solution were pre-incubated at 37°C for 10 minutes. […] The enzymatic process was stopped by adding 500 µL of ice-cold acetonitrile. Different incubation times were assessed: 15 minutes to 4 hours. Incubation mixtures were centrifuged at 15,000 rpm for 10 minutes.
A series of incubations was also performed with previously inactivated human heart microsomes. The CYP450 proteins were inactivated by heating microsomes at 60°C for 10 minutes. Incubations were also conducted in the presence of nitrogen gas or carbon monoxide gas in replacement of ambient air to inactivate CYP450s.

[3] = left ventricular microsomes, n = 20, substrate verapamil
[4] = microsomes prepared from right ventricles, n = 8, substrate verapamil

Row | Compound | decrease in formation of all major verapamil metabolites [1] | formation rate of verapamil metabolites, median (range; minimum-maximum values) [2, 3] | formation rate of verapamil metabolites, median (range; minimum-maximum values) [2, 4]
1 | CCCCCCCCN [N-octylamine] | more than 80% | – | –
2 | COc1cc(C(C#N)(CCCNCCc2ccc(OC)c(OC)c2)C(C)C)ccc1O (stereo not drawn) [PR22] | – | 27 (2.1–76) pmol/min/mg of heart microsomal proteins | 21 (3.7–64.4) pmol/min/mg of heart microsomal proteins
3 | CCCC(C(=O)OCCN(CC)CC)(c1ccccc1)c1ccccc1 [SKF525] | more than 80% | – | –
4 | COc1ccc(CCNCCCC(C#N)(c2ccc(OC)c(OC)c2)C(C)C)cc1OC (stereo not drawn) [norverapamil] | – | 25 (5.8–214) pmol/min/mg of heart microsomal proteins | 39 (5.8–145) pmol/min/mg of heart microsomal proteins
